What is called IC50 is the point on the concentration scale where inhibition reaches its midpoint.

The structures appear in SMILES notation. Calls of active or inactive are those of the source. The rule behind the calls is not given here.

15 compounds from ChEMBL document CHEMBL4665654, “Design, synthesis and evaluation of antiproliferative activity of fluorinated betulinic acid” (Bioorg Med Chem, 2019) can be followed below.

One test relates to A549. The experiment in a line: Antiproliferative activity against human A549 cells assessed as cell growth inhibition after 72 hrs by sulforhodamine B assay. In kind it is functional, cell-based. The following applies: A549, 72 h. On the technique in general: Sulforhodamine B stains cellular protein and so reports cell mass.
The next test has as its system MDA-MB-231. The experiment in a line: Antiproliferative activity against human MDA-MB-231 cells assessed as cell growth inhibition after 72 hrs by sulforhodamine B assay. In kind it is functional, cell-based. The following applies: MDA-MB-231, 72 h.
In another test the test system is KB. The experiment in a line: Antiproliferative activity against human KB cells assessed as cell growth inhibition after 72 hrs by sulforhodamine B assay. In kind it is functional, cell-based.
Test [1] is described as follows: Antiproliferative activity against human KB-VIN cells assessed as cell growth inhibition after 72 hrs by sulforhodamine B assay. To be noted: KBVIN. The test is classed as functional, cell-based.
Test [2] relates to MCF7. The experiment in a line: Antiproliferative activity against human MCF7 cells assessed as cell growth inhibition after 72 hrs by sulforhodamine B assay. The test is classed as functional, cell-based. The following applies: MCF7, 72 h.
Test [3] addresses T1, DNA topoisomerase 1 (Homo sapiens) (UniProt P11387).
T1 sequence (whole entry): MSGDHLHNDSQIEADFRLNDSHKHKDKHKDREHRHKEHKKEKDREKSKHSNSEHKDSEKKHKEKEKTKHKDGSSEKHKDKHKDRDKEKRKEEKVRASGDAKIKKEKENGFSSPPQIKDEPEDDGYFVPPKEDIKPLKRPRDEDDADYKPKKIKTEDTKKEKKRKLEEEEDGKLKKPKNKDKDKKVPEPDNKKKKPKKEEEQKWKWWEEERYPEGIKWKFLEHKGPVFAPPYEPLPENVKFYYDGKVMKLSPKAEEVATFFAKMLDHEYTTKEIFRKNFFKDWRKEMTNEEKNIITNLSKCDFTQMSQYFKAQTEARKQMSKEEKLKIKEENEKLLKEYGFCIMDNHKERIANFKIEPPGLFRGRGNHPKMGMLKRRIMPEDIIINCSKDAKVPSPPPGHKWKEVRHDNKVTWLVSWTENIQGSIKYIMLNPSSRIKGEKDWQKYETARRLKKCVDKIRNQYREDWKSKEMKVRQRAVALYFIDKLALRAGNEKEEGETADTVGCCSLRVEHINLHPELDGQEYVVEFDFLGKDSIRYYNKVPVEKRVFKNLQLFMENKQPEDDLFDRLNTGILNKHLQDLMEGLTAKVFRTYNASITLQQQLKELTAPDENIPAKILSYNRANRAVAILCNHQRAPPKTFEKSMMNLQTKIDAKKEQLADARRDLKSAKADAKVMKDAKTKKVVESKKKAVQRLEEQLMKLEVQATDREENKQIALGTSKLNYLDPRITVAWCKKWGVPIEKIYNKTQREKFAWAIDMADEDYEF
The experiment in a line: Inhibition of recombinant human topoisomerase 1 assessed as decrease in relaxation/nicking of supercoiled DNA using supercoiled DNA as substrate at 30 uM after 1 hr by ethidium bromide staining based agarose gel electrophoresis analysis.

Test [4] relates to MCF7. The experiment in a line: Induction of apoptosis in human MCF7 cells at 40 uM incubated for 24 to 72 hrs by Annexin V-FITC/propidium iodide staining-based flow cytometric analysis. The test is classed as functional, cell-based. To be noted: time hrs 24-72. (In general: Flow cytometry measures light scatter and fluorescence of single cells or particles in a stream.)
The target in test [5] is T1, DNA topoisomerase 1 (Homo sapiens). Nature of the test: Inhibition of topoisomerase 1 in human MCF7 cells nuclear extract assessed as decrease in relaxation/nicking of supercoiled DNA using supercoiled DNA as substrate at 40 uM after 1 hr by ethidium bromide staining based agarose gel electrophoresis analysis. The test is classed as subcellular. The following applies: Nucleus.

For test [6], the target named is DNA topoisomerase 2-alpha (Homo sapiens) (UniProt P11388). Nature of the test: Inhibition of topoisomerase-2alpha in human MCF7 cells nuclear extract assessed as decrease in relaxation/nicking of kinetoplast DNA using kDNA as substrate at 40 uM after 15 mins by ethidium bromide staining based agarose gel electrophoresis analysis. In kind it is subcellular. To be noted: Nucleus.
Chain of DNA topoisomerase 2-alpha (Homo sapiens) (P11388 whole entry): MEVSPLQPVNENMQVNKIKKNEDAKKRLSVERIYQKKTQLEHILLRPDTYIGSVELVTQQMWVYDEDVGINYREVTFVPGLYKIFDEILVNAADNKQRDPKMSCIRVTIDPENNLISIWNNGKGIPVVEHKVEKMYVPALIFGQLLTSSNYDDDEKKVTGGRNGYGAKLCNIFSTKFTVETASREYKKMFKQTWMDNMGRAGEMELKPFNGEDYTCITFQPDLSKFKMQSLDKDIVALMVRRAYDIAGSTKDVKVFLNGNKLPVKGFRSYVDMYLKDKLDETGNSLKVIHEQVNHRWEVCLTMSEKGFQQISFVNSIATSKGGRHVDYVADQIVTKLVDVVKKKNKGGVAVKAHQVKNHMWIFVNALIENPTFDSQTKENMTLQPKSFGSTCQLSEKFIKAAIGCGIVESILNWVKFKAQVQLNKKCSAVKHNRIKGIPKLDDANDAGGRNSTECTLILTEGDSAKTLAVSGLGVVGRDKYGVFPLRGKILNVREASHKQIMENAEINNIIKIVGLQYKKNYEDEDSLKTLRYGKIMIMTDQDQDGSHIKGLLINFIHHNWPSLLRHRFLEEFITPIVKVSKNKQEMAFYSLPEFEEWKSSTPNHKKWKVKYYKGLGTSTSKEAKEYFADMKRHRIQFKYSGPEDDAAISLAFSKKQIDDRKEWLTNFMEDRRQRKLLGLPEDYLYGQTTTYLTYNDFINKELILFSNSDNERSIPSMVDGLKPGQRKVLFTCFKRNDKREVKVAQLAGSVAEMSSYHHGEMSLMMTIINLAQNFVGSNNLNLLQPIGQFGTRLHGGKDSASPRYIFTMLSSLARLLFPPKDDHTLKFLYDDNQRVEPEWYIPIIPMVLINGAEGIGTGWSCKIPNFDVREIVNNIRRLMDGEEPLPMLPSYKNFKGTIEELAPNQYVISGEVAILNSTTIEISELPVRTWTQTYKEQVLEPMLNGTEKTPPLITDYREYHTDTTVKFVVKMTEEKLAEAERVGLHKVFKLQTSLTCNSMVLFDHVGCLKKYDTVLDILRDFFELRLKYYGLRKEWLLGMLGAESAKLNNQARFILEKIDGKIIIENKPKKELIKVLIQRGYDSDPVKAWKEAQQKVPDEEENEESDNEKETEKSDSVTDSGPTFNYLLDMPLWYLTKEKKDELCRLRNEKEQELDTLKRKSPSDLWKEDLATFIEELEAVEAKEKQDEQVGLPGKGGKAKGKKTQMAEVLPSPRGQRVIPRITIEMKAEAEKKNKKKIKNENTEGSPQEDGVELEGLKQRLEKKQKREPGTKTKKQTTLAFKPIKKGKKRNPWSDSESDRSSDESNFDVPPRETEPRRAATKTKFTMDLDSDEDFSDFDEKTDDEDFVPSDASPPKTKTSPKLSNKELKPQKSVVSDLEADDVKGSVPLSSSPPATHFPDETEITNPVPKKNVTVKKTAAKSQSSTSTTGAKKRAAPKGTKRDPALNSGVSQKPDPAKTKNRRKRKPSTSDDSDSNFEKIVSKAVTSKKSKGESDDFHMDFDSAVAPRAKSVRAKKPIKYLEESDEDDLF

For test [7] the target is unchanged. The experiment in a line: Inhibition of recombinant human topoisomerase-2alpha assessed as decrease in relaxation/nicking of kinetoplast DNA using kDNA as substrate at 100 uM after 15 mins by ethidium bromide staining based agarose gel electrophoresis analysis.
For test [8], the target named is T1, DNA topoisomerase 1 (Homo sapiens). The experiment in a line: Inhibition of recombinant human topoisomerase 1 assessed as decrease in relaxation/nicking of supercoiled DNA using supercoiled DNA as substrate at 10 uM after 1 hr by ethidium bromide staining based agarose gel electrophoresis analysis.
In test [9] the test system is MCF7. The experiment in a line: Inhibition of colony formation in human MCF7 cells at 10 to 40 uM of compound exposure followed by compound washout and subsequent incubation for 3 weeks by crystal violet staining based assay. The following applies: dose microM 10-40. The test is classed as functional, cell-based.

For `C=C(C)[C@@H]1CC[C@]2(C(=O)OC)CC[C@]3(C)[C@H](CC[C@@H]4[C@@]5(C)CC(F)[C@H](OC(=O)CC(C)(C)C(=O)O)C(C)(C)[C@@H]5CC[C@]43C)[C@@H]12` (some centres undefined), the concentration for half-maximal inhibition (IC50) (with A549; in the test on MDA-MB-231; in the test on KB; in test [1]; with MCF7 [2]) was more than 10 µM throughout.

With `C=C(C)[C@@H]1CC[C@]2(C(=O)OC)CC[C@]3(C)[C@H](CC[C@@H]4[C@@]5(C)CC[C@@](O)(C(F)(F)F)C(C)(C)[C@@H]5CC[C@]43C)[C@@H]12`, the 50% inhibitory concentration (IC50) (in the test with A549; in the test with MDA-MB-231; in the test on KB; in [1]; with MCF7 [2]) was more than 10 µM each time.

Regarding `C=C(C)[C@@H]1CC[C@]2(C(=O)OC)CC[C@]3(C)[C@H](CC[C@@H]4[C@@]5(C)CC(F)[C@H](O)C(C)(C)[C@@H]5CC[C@]43C)[C@@H]12` (mixture of isomers), the IC50 (with A549; in the test on MDA-MB-231; in the test with KB; in [1]; in the test on MCF7 [2]) was more than 10 µM each time.

For the compound `C=C(C)[C@@H]1CC[C@]2(C(=O)OCc3ccc(Cl)cc3)CC[C@]3(C)[C@H](CC[C@@H]4[C@@]5(C)C[C@@H](F)C(=O)C(C)(C)[C@@H]5CC[C@]43C)[C@@H]12`, the IC50 (in the test on A549; in the test with MDA-MB-231; in the test on KB; in test [1]; with MCF7 [2]) was more than 40 µM each time.

For the compound `C=C(C)[C@@H]1CC[C@]2(C(=O)O)CC[C@]3(C)[C@H](CC[C@@H]4[C@@]5(C)C[C@@H](F)[C@H](O)C(C)(C)[C@@H]5CC[C@]43C)[C@@H]12`, the IC50 worked out at 5.6 µM with A549; 9 µM with MDA-MB-231; 6.7 µM with KB; 6.7 µM in test [1]; 15.3 µM in the test with MCF7 [2].

For the compound `C=C(C)[C@@H]1CC[C@]2(C(=O)O)CC[C@]3(C)[C@H](CC[C@@H]4[C@@]5(C)C[C@H](F)[C@H](O)C(C)(C)[C@@H]5CC[C@]43C)[C@@H]12`, the IC50 in the test with A549 is 4.5 µM; in the test with MDA-MB-231, 12.4 µM; in the test with KB, 6.1 µM; in test [1], 6 µM; in the test with MCF7 [2], 14.4 µM.

In the case of `C=C(C)[C@@H]1CC[C@]2(C(=O)OCc3ccc(Cl)cc3)CC[C@]3(C)[C@H](CC[C@@H]4[C@@]5(C)C[C@H](F)C(=O)C(C)(C)[C@@H]5CC[C@]43C)[C@@H]12`, the IC50 (with A549; in the test with MDA-MB-231; in the test on KB; in test [1]; in the test with MCF7 [2]) was more than 40 µM in each case.

As for `C=C(C)[C@@H]1CC[C@]2(C(=O)O)CC[C@]3(C)[C@H](CC[C@@H]4[C@@]5(C)CC[C@H](O)C(C)(C)[C@@H]5CC[C@]43C)[C@@H]12` [BETULINIC ACID], the inhibition entry (in [3]; in the test with MCF7 [9]) was “Active” in each case. Besides, in the test on MCF7 [4], the outcome was Active. In addition, the concentration for half-maximal inhibition (IC50) is 29.5 µM in the test on A549; more than 40 µM with MDA-MB-231; 28.7 µM with KB; 30.7 µM in test [1]; more than 40 µM in the test with MCF7 [2]. For the same compound, the inhibition entry in test [5], in test [6], in test [7] and in test [8] was “inactive” each time.

`C=C(C)[C@@H]1CC[C@]2(C(=O)O)CC[C@]3(C)[C@H](CC[C@@H]4[C@@]5(C)CC[C@@](O)(C(F)(F)F)C(C)(C)[C@@H]5CC[C@]43C)[C@@H]12`: the IC50 with A549 was 5.4 µM; with MDA-MB-231 it was more than 10 µM; in the test on KB it was 5.9 µM; in test [1] it was 6 µM; with MCF7 [2], 7.8 µM.

Take `C=C(C)[C@@H]1CC[C@]2(C(=O)OCc3ccc(Cl)cc3)CC[C@]3(C)[C@H](CC[C@@H]4[C@@]5(C)CC[C@@](O)(C(F)(F)F)C(C)(C)[C@@H]5CC[C@]43C)[C@@H]12`: the IC50 (in the test with A549; with MDA-MB-231; in the test on KB; in test [1]; in the test with MCF7 [2]) was more than 40 µM throughout.

As for `CC(=O)O[C@H]1C(=O)[C@@]2(C)[C@H]([C@H](OC(=O)c3ccccc3)[C@]3(O)C[C@H](OC(=O)[C@H](O)[C@@H](NC(=O)c4ccccc4)c4ccccc4)C(C)=C1C3(C)C)[C@]1(OC(C)=O)CO[C@@H]1C[C@@H]2O` [PACLITAXEL], the 50% inhibitory concentration (IC50) in test [1] came out at 2.9 µM.

Consider `C=C(C)[C@@H]1CC[C@]2(C(=O)OCc3ccc(Cl)cc3)CC[C@]3(C)[C@H](CC[C@@H]4[C@@]5(C)CCC(=O)C(C)(C)[C@@H]5CC[C@]43C)[C@@H]12`, for which the IC50 (in the test with A549; with MDA-MB-231; in the test with KB; in [1]; with MCF7 [2]) was more than 40 µM in each case.

For the compound `COc1cc([C@@H]2c3cc4c(cc3[C@@H](O[C@@H]3O[C@@H]5CO[C@@H](C)O[C@H]5[C@H](O)[C@H]3O)[C@H]3COC(=O)[C@H]23)OCO4)cc(OC)c1O`, the inhibition entry in test [7] is “Active”.

With `C=C(C)[C@@H]1CC[C@]2(C(=O)O)CC[C@]3(C)[C@H](CC[C@@H]4[C@@]5(C)CC(F)[C@H](OC(=O)CC(C)(C)C(=O)O)C(C)(C)[C@@H]5CC[C@]43C)[C@@H]12` (some centres undefined), the IC50 (in the test on A549; in the test on MDA-MB-231; with KB; in test [1]; in the test with MCF7 [2]) was more than 10 µM each time.

Take `C=C(C)[C@@H]1CC[C@]2(C(=O)OC)CC[C@]3(C)[C@H](CC[C@@H]4[C@@]5(C)CC(F)C(=O)C(C)(C)[C@@H]5CC[C@]43C)[C@@H]12` (some centres undefined): the 50% inhibitory concentration (IC50) (in the test with A549; in the test with MDA-MB-231; in the test on KB; in test [1]; with MCF7 [2]) was more than 10 µM in each case.
